≈ marks a conversion by molar mass, not a printed value. Where two headings read alike, the source gives them in different places. Each block holds one compound with its values, some of them ahead of it.
Experiments:
B. subtilis = tested on: B. subtilis
Procedure: (§1) Determining the MIC value is a standard technique well known to the skilled person, in particular the MIC value can be measured using method M07-A9 (CLSI standard, January 2012, Vol. 32, No. 2, “Methods for Dilution Antimicrobial Susceptibility Tests for Bacteria That Grow Aerobically”).
(§2) Different microorganisms (from glycerol stock) were plated out on blood agar and incubated at 37° C. for 24 hours. A colony was selected and 2×5 mL of TSB was inoculated. The samples and a sterile control were cultured for 16-20 hours at 37° C. Comparative compound B is nisin acting as a control. […] Comparative compounds A, D and E are also control compounds not part of the present invention.
(§3) The overnight cultures were diluted to 0.5×10^6 CFU in TSB. 50 μL of the bacterial solution was added to each well and the plates were sealed with an adhesive membrane and incubated at 37° C. for 16 hours. The next day, the plates were visually inspected for bacterial growth.

E. coli = tested on: E. coli
Procedure: as §1, §2, §3

S. aureus = tested on: S. aureus
Procedure: as §1, §2, §3

VRE 155 = type: cell-based
Procedure: as §1
(§4) Different microorganisms (from glycerol stock) were plated out on blood agar and incubated at 37° C. for 24 hours. A colony was selected and 2×5 mL of TSB was inoculated. The samples and a sterile control were cultured for 16-20 hours at 37° C. Comparative compound B is nisin acting as a control. Comparative compound C is vancomycin, also acting as a control. Comparative compounds A, D and E are also control compounds not part of the present invention.
as §3

MRSA USA300 = type: cell-based, Staphylococcus aureus
Procedure: as §1, §4, §3

M. luteus = type: cell-based
Procedure: as §1, §4, §3

MRSA WKZ2 = type: cell-based, Staphylococcus aureus
Procedure: as §1, §4, §3

Serum stability = type: in vitro ADME; settings: human serum, 37° C., after 24 hours; read-out: stability in human serum, remained intact
Procedure: 2 mg/mL peptide solutions were prepared in 26% DMSO in MilliQ. Duplicate samples were prepared with […] peptide solution and […] human serum, making the final DMSO concentration 2%. The samples were incubated at 37° C., and samples were taken at t=0, 1, 2, 4 and 24 hours as follows: to 100 μL serum solution, 200 μL MeOH (containing 0.075 mg/mL ethylparaben as an internal standard) was added to precipitate the proteins. The sample was vortexed briefly and allowed to stand for 10 min at RT. The samples were then centrifuged at 13,000 rpm for 5 min, and the supernatant was taken and stored at −20° C. until analysis. Each sample was analyzed by HPLC on a C4 column. The peaks were integrated and normalized to the internal standard.

Compound: C=C1NC(=O)[C@H]([C@@H](C)CC)NC(=O)[C@H](NC(=O)C(=CC)NC(=O)[C@@H](N)[C@@H](C)CC)CSC[C@@H](C(=O)N[C@H]2C(=O)N3CCC[C@H]3C(=O)NCC(=O)N[C@H](C(=O)N[C@@H](CCCCN)C(=O)NCCCCCCCCCCCCC)CS[C@H]2C)NC(=O)[C@H](CC(C)C)NC1=O [(9)]
- MIC values B. subtilis (B. subtilis; duplicate experiments): 4 µg/mL (≈ 3 µM)
- MIC values E. coli (E. coli; duplicate experiments): >64 µg/mL
- MIC values S. aureus (S. aureus; duplicate experiments): 8 µg/mL (≈ 6.01 µM)
- MIC values VRE 155 (VRE 155; duplicate experiments): 2 µg/mL (≈ 1.5 µM)
- MIC values MRSA USA300 (MRSA USA300; duplicate experiments): 4 µg/mL (≈ 3 µM)

- MIC values B. subtilis (B. subtilis): 4 µg/mL (≈ 2.59 µM)
- MIC values E. coli (E. coli): >64 µg/mL
- MIC values S. aureus (S. aureus): 8 µg/mL (≈ 5.18 µM)
- MIC values M. luteus (M. luteus): 2 µg/mL (≈ 1.3 µM)
- MIC values VRE 155 (VRE 155): 8 µg/mL (≈ 5.18 µM)
- MIC values MRSA USA300 (MRSA USA300; USA300): 8 µg/mL (≈ 5.18 µM)
- MIC values MRSA WKZ2 (MRSA WKZ2; WKZ2): 8 µg/mL (≈ 5.18 µM)
Compound: C=C1NC(=O)[C@H]([C@@H](C)CC)NC(=O)[C@H](NC(=O)C(=CC)NC(=O)[C@@H](N)[C@@H](C)CC)CSC[C@@H](C(=O)N[C@H]2C(=O)N3CCC[C@H]3C(=O)NCC(=O)N[C@H](C(=O)N[C@@H](CCCCN)C(=O)NCCCn3cc(CNC(=O)c4ccc(-c5ccc(-c6ccccc6)cc5)cc4)nn3)CS[C@H]2C)NC(=O)[C@H](CC(C)C)NC1=O [Compound (24) with R1-group (e)]

Compound: C=C1NC(=O)[C@H]([C@@H](C)CC)NC(=O)[C@H](NC(=O)C(=CC)NC(=O)[C@@H](N)[C@@H](C)CC)CSC[C@@H](C(=O)N[C@H]2C(=O)N3CCC[C@H]3C(=O)NCC(=O)N[C@H](C(=O)N[C@@H](CCCCN)C(=O)NCCCCCCCCCCC)CS[C@H]2C)NC(=O)[C@H](CC(C)C)NC1=O [(7)]
- MIC values B. subtilis (B. subtilis; duplicate experiments): 4 µg/mL (≈ 3.07 µM)
- MIC values E. coli (E. coli; duplicate experiments): >64 µg/mL
- MIC values S. aureus (S. aureus; duplicate experiments): 8 µg/mL (≈ 6.14 µM)
- MIC values VRE 155 (VRE 155; duplicate experiments): 4 µg/mL (≈ 3.07 µM)
- MIC values MRSA USA300 (MRSA USA300; duplicate experiments): 16 µg/mL (≈ 12.3 µM)

Compound: C=C1NC(=O)[C@H]([C@@H](C)CC)NC(=O)[C@H](NC(=O)C(=CC)NC(=O)[C@@H](N)[C@@H](C)CC)CSC[C@@H](C(=O)N[C@H]2C(=O)N3CCC[C@H]3C(=O)NCC(=O)N[C@H](C(=O)N[C@@H](CCCCN)C(=O)NCCCCCCCCCCCCCC)CS[C@H]2C)NC(=O)[C@H](CC(C)C)NC1=O [(10)]
- MIC values B. subtilis (B. subtilis; duplicate experiments): 4 µg/mL (≈ 2.97 µM)
- MIC values E. coli (E. coli; duplicate experiments): >64 µg/mL
- MIC values S. aureus (S. aureus; duplicate experiments): 16 µg/mL (≈ 11.9 µM)
- MIC values M. luteus (M. luteus; duplicate experiments): 1 to 2 µg/mL
- MIC values VRE 155 (VRE 155; duplicate experiments): 4 µg/mL (≈ 2.97 µM)
- MIC values MRSA USA300 (MRSA USA300; duplicate experiments): 64 µg/mL (≈ 47.6 µM)
- MIC values MRSA WKZ2 (MRSA WKZ2; duplicate experiments): 32 µg/mL (≈ 23.8 µM)
- remaining at 24 h, 0.15 mg/mL (Serum stability): > 50%
- MIC (thirty VRE strains; VRE strain E0013, GBR, vanA): 4 µg/mL (≈ 2.97 µM)
- MIC (thirty VRE strains; VRE strain E0072, NLD, vanA): 2 µg/mL (≈ 1.49 µM)
- MIC (thirty VRE strains; VRE strain E0300, USA, vanA): 8 to 16 µg/mL
- MIC (thirty VRE strains; VRE strain E0321, FRA, vanA): 2 µg/mL (≈ 1.49 µM)
- MIC (thirty VRE strains; VRE strain E0333, ISR, vanA): 4 µg/mL (≈ 2.97 µM)
- MIC (thirty VRE strains; VRE strain E0338, ITA, vanA): 4 µg/mL (≈ 2.97 µM)
- MIC (thirty VRE strains; VRE strain E0341, GBR, vanA): 4 µg/mL (≈ 2.97 µM)
- MIC (thirty VRE strains; VRE strain E0506, AUS, vanA): 8 µg/mL (≈ 5.94 µM)
- MIC (thirty VRE strains; VRE strain E0745, NLD, vanA): 4 µg/mL (≈ 2.97 µM)
- MIC (thirty VRE strains; VRE strain E1130, USA, vanA): 4 µg/mL (≈ 2.97 µM)
- MIC (thirty VRE strains; VRE strain E1441, GRC, vanA): 4 µg/mL (≈ 2.97 µM)
- MIC (thirty VRE strains; VRE strain E1679, BRA, vanA): 4 µg/mL (≈ 2.97 µM)
- MIC (thirty VRE strains; VRE strain E1763, BEL, vanA): 8 µg/mL (≈ 5.94 µM)
- MIC (thirty VRE strains; VRE strain E2297, USA, vanA): 2 µg/mL (≈ 1.49 µM)
- MIC (thirty VRE strains; VRE strain E2359, SGP, vanB): 2 µg/mL (≈ 1.49 µM)
- MIC (thirty VRE strains; VRE strain E2365, HUN, vanB): 1 µg/mL (≈ 0.743 µM)
- MIC (thirty VRE strains; VRE strain E2373, SRB, vanA): 4 µg/mL (≈ 2.97 µM)
- MIC (thirty VRE strains; VRE strain E6016, LVA, vanA): 2 to 4 µg/mL
- MIC (thirty VRE strains; VRE strain E7312, NLD, vanA): 2 µg/mL (≈ 1.49 µM)
- MIC (thirty VRE strains; VRE strain E7314, NLD, vanB): 4 µg/mL (≈ 2.97 µM)
- MIC (thirty VRE strains; VRE strain E7319, NLD, vanA): 2 µg/mL (≈ 1.49 µM)
- MIC (thirty VRE strains; VRE strain E7329, NLD, vanA): 2 µg/mL (≈ 1.49 µM)
- MIC (thirty VRE strains; VRE strain E7401, NLD, vanB): 4 µg/mL (≈ 2.97 µM)
- MIC (thirty VRE strains; VRE strain E7403, NLD, vanB): 1 µg/mL (≈ 0.743 µM)
- MIC (thirty VRE strains; VRE strain E7413, NLD, vanA): 4 µg/mL (≈ 2.97 µM)
- MIC (thirty VRE strains; VRE strain E7424, NLD, vanB): 1 to 2 µg/mL
- MIC (thirty VRE strains; VRE strain E7464, NLD, vanB): 4 µg/mL (≈ 2.97 µM)
- MIC (thirty VRE strains; VRE strain E8218, NLD, vanB): 2 µg/mL (≈ 1.49 µM)
- MIC (thirty VRE strains; VRE strain E8235, NLD, vanB): 4 µg/mL (≈ 2.97 µM)
- MIC (thirty VRE strains; VRE strain E8237, NLD, vanA): 8 µg/mL (≈ 5.94 µM)

- MIC values B. subtilis (B. subtilis): 32 µg/mL (≈ 20.9 µM)
- MIC values E. coli (E. coli): >64 µg/mL
- MIC values S. aureus (S. aureus): 64 µg/mL (≈ 41.7 µM)
- MIC values M. luteus (M. luteus): 2 to 4 µg/mL
Compound: C=C1NC(=O)[C@H]([C@@H](C)CC)NC(=O)[C@H](NC(=O)C(=CC)NC(=O)[C@@H](N)[C@@H](C)CC)CSC[C@@H](C(=O)N[C@H]2C(=O)N3CCC[C@H]3C(=O)NCC(=O)N[C@H](C(=O)N[C@@H](CCCCN)C(=O)NCCCn3cc(CCC(=O)NC/C=C(\C)CC/C=C(\C)CCC=C(C)C)nn3)CS[C@H]2C)NC(=O)[C@H](CC(C)C)NC1=O [Compound (24) with R1-group (d)]

Compound: C=C1NC(=O)[C@H]([C@@H](C)CC)NC(=O)[C@H](NC(=O)C(=CC)NC(=O)[C@@H](N)[C@@H](C)CC)CSC[C@@H](C(=O)N[C@H]2C(=O)N3CCC[C@H]3C(=O)NCC(=O)N[C@H](C(=O)N[C@@H](CCCCN)C(=O)NCCCCCCC)CS[C@H]2C)NC(=O)[C@H](CC(C)C)NC1=O [(3)]
- MIC values B. subtilis (B. subtilis; duplicate experiments): 16 µg/mL (≈ 12.8 µM)
- MIC values E. coli (E. coli; duplicate experiments): >64 µg/mL
- MIC values S. aureus (S. aureus; duplicate experiments): 64 µg/mL (≈ 51.3 µM)
- MIC values VRE 155 (VRE 155; duplicate experiments): 8 µg/mL (≈ 6.41 µM)
- MIC values MRSA USA300 (MRSA USA300; duplicate experiments): 64 µg/mL (≈ 51.3 µM)

— patent US20170362283A1, “NISIN-BASED COMPOUNDS AND USE THEREOF IN THE TREATMENT OF BACTERIAL INFECTIONS” (UNIVERSITEIT UTRECHT HOLDING B.V., priority 2015, published 2017)
